One data set has as its target T1, trypsin (Bos taurus, UniProt P00760).
T1 sequence (P00760 24-246): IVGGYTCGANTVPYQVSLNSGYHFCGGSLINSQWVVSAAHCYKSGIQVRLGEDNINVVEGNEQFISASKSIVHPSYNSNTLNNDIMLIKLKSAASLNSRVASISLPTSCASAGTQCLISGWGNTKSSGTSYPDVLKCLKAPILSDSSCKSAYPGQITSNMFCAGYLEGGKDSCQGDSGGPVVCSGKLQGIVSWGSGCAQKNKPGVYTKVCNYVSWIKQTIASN
The following applies: for k H [M^−1 s^−1] (closed): pH 8.2.

Data set [1] addresses T2, Bos taurus trypsin 1 (T1) (Bos taurus, UniProt P00760).
T2 sequence (P00760 24-246): T1 sequence (P00760 24-246)
The experiment in a line: Trypsin inhibition, Ki by Lineweaver-Burk analysis.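 For all read-outs here: trypsin activity followed by spectrophotometric hydrolysis kinetics of the chromogenic substrate BAPNA in Tris buffer, Ki obtained from double-reciprocal Lineweaver–Burk plots at several substrate concentrations.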 The settings on record: for K i (closed) /K i (open): ratio of ring-closed to ring-open isomer, T1.
Method: Protease inhibition assays
The inhibition of trypsin and α-chymotrypsin was investigated by two methods. First, the inhibition was determined at a fixed enzyme and substrate concentration, whereas the inhibitor concentration varied. By plotting the protease activity against an inhibitor’s concentration, IC50 (the half-maximal inhibitory concentration) was determined.
Lineweaver–Burk analysis (see below), the Ki values for all peptide inhibitors were determined with high accuracy.
All measurements were performed with p-nitroaniline-based chromogenic substrates (λabs = 405 nm) in 96-well microtiter plates using
EpochTM 2 microplate spectrophotometer. For trypsin measurements the Tris buffer (50 mM Tris-HCl, 25 mM CaCl2, 0.005% Tween®
For the measurements, a fresh 0.92 µM trypsin solution was prepared from the storage aliquot and kept on ice.
A stock solution of the substrate BAPNA (Nα-Benzoyl-DL-arginine 4-nitroanilide hydrochloride) at the concentration of 50 mM in
aqueous dimethyl sulfoxide (DMSO) (100 mg of BAPNA in 4.6 mL of DMSO:water mixture 1:1) was pre pared and stored at RT.
peptide solutions at the concentration of 100 µM, which was further diluted to 10, 1, or 0.1 µM if required, were prepared in Milli-Q®
deionized ultrapure water.
For the determination of IC50, a double dilution series of inhibit ors were prepared in a 96 -well plate (12 concentrations, two repeats
for each concentration, 200 µL of Tris buffer in each well). Subsequently, a trypsin solution (20 µL, 150 nM) was added to ea ch well
with the tested peptide and to the control row. Soluti ons in each well were intensely mixed using a multichannel pipette (from lower
concentration to higher). After a pre -incubation period (5 min), the substrate BAPNA was added to each well (20 µL, 25 mM).
solutions were thoroughly mixed with the multicha nnel pipette, and the kinetics of substrate hydrolysis was recorded with an interval
of 1 min between measurements over 20 min. The total volume in each well was 240 µL, final trypsin and BAPNA concentrations
were 12.5 nM and 2.08 mM, respectively. The mea n values of the two repeats of the slope of absorption vs. time curves were
calculated. The activities at different inhibitor concentrations were then calculated by taking the control curves’ slope val ues (no
inhibitor) as the 100% enzyme activity. The inh ibition activity IC 50 against α-chymotrypsin (α-chymotrypsin from bovine pancreas
type II) was measured in the same way except that a different substrate, Ac-EAPF-pNA (Ac-Glu-Ala-Pro-Phe-pNA), was used (20
Inhibitory constants Ki were determined by Lineweaver-Burk (LWB) double-reciprocal analysis according to a published protocol.[S5]
Briefly, a fresh inhibitor/enzyme mixture was prepared in a glass vial and distributed to 2x6 wells (200 µL in each well, enzyme
concentration after dilution 12 nM). An enzyme without an inhibitor was added to the control wells. Aliquots of varying substrate stock
solutions were added with a multichannel pipette to each well. For trypsin inhibition experiments, BAPNA (20 µL per well of 20, 22.7,
26, 29.8, 34, 40 mM) and for α-chymotrypsin Ac-EAPF-pNA (20 µL per well of 16, 12.48, 10, 8, 6.4, 5.44 mM) were used, respectively.
Well contents were thoroughly mixed using a multichannel pipette, and a plate reader was used to monitor the hydrolysis kinetics
(sampling interval of 1 min over 20 min).

The nature of data set [2]: Photostationary state under UV irradiation / photoconversion. Format: physicochemical. The following applies: deoxygenated water, 22 °C, continuous UV irradiation 320-400 nm; values with * by RP-HPLC. The method, then: Table S3 Photostationary states (PSS) for the studied peptides in deoxygenated water at 22 °C determined as the maximal conversion of the ring-open form to
ring-closed form under continuous UV irradiation (spectral range of 320-400 nm).
* As was determined by RP-HPLC analysis. […]

Structures are written as SMILES. *1 amine or outer side, *2 acyl side, *3 side chain or, on linkers, in order; H or OH if unused. Where a SMILES comes first, the peptide text is derived from it. Bridges are numbered along the chain shown (N, C = ends). Triazole bridges read from a SMILES are 1,4-linked. [ ]: non-standard residue; d: D form. X1 = Cc1sc(C(=O)[C@@H]2CCCN2[*:2])cc1C1=C(c2cc(C(=O)[*:1])sc2C)CCC1; Orn(N3) = [N-]=[N+]=NCCC[C@H](N)C(=O)O; Aha = [N-]=[N+]=NCC[C@H](N)C(=O)O; hCys = N[C@@H](CCS)C(=O)O; Pra = C#CC[C@H](N)C(=O)O

`CC[C@H](C)[C@@H]1NC(=O)[C@@H]2CCCN2C(=O)[C@@H]2CCCN2C(=O)[C@H]([C@@H](C)CC)NC(=O)[C@H](CO)NC(=O)[C@H](CCCCN)NC(=O)[C@H]([C@@H](C)O)NC(=O)[C@@H]2CSSCC[C@H](NC1=O)C(=O)N[C@@H](Cc1ccccc1)C(=O)N1CCC[C@H]1C(=O)c1cc(c(C)s1)C1=C(CCC1)c1cc(sc1C)C(=O)N[C@@H](CCCNC(=N)N)C(=O)N2` [Peptide S5n] (RCTKSIPPI[hCys]F; disulfide 2-10; linker N-C via X1): at trypsin, the “k H (closed) /k H (open)” value is on record as 13.6 and the “k H [M^−1 s^−1] (closed)” value is listed as 3.4±0.5×10^−2 M^−1 s^−1. Affinity in data set [1] (K i [nM] (closed)) was put at a Ki of 231 ± 14 nM. The compound further showed a Ki in data set [1] (K i [nM] (open)) of 95 ± 6 nM.
In the case of `CC[C@H](C)[C@@H]1NC(=O)[C@@H]2CCCN2C(=O)[C@@H]2CCCN2C(=O)[C@H]([C@@H](C)CC)NC(=O)[C@H](CO)NC(=O)[C@H](CCCCN)NC(=O)[C@H]([C@@H](C)O)NC(=O)[C@@H]2Cc3cn(nn3)CC[C@H](NC1=O)C(=O)N[C@@H](CCCNC(=N)N)C(=O)N[C@@H](CC(C)C)C(=O)N1CCC[C@H]1C(=O)c1cc(c(C)s1)C1=C(CCC1)c1cc(sc1C)C(=O)N[C@@H](C(C)C)C(=O)N[C@@H](Cc1ccccc1)C(=O)N2` [Peptide S11i] (VF[Pra]TKSIPPI[Aha]RL; triazole 3-11; linker N-C via X1), the “PSS, % (maximal conversion of ring-open to ring-closed form)” value (shortened to “PSS, %”) in data set [2] came to 80.2%. On trypsin, the “k H (closed) /k H (open)” value was 3.3 and the “k H [M^−1 s^−1] (closed)” value was 9.1±1×10^−2 M^−1 s^−1. Besides, the affinity in data set [1] (K i [nM] (open)), expressed as Ki, was 1720 ± 130 nM. In addition, the “K i (closed) /K i (open)” value in data set [1] is 3.1.
With `CC[C@H](C)[C@@H]1NC(=O)[C@@H]2CCCN2C(=O)[C@@H]2CCCN2C(=O)[C@H]([C@@H](C)CC)NC(=O)[C@H](CO)NC(=O)[C@H](CCCCN)NC(=O)[C@H]([C@@H](C)O)NC(=O)[C@@H]2Cc3cn(nn3)CCC[C@H](NC1=O)C(=O)N[C@@H](CCCNC(=N)N)C(=O)N[C@@H](CC(C)C)C(=O)N1CCC[C@H]1C(=O)c1cc(c(C)s1)C1=C(CCC1)c1cc(sc1C)C(=O)N[C@@H](C(C)C)C(=O)N[C@@H](Cc1ccccc1)C(=O)N2` [Peptide S12i] (VF[Pra]TKSIPPI[Orn(N3)]RL; triazole 3-11; linker N-C via X1), at trypsin, the “k H (closed) /k H (open)” value turned out to be 3.0 and the “k H [M^−1 s^−1] (closed)” value is 4.2±0.4×10^−2 M^−1 s^−1. Also, affinity in data set [1] (K i [nM] (open)) was put at a Ki of 2440 ± 215 nM.
`CC[C@H](C)[C@@H]1NC(=O)[C@@H]2CCCN2C(=O)[C@@H]2CCCN2C(=O)[C@H]([C@@H](C)CC)NC(=O)[C@H](CO)NC(=O)[C@H](CCCCN)NC(=O)[C@H]([C@@H](C)O)NC(=O)[C@@H]2CSSC[C@H](NC1=O)C(=O)N[C@@H](CCCNC(=N)N)C(=O)N1CCC[C@H]1C(=O)c1cc(c(C)s1)C1=C(CCC1)c1cc(sc1C)C(=O)N[C@@H](Cc1ccccc1)C(=O)N2` [Peptide S1i] (FCTKSIPPICR; disulfide 2-10; linker N-C via X1) registered a Ki in data set [1] (K i [nM] (open)) of 13.4 ± 1.4 nM.
Consider `CC[C@H](C)[C@@H]1NC(=O)[C@@H]2CCCN2C(=O)[C@@H]2CCCN2C(=O)[C@H]([C@@H](C)CC)NC(=O)[C@H](CO)NC(=O)[C@H](CCCCN)NC(=O)[C@H]([C@@H](C)O)NC(=O)[C@@H]2CSSC[C@H](NC1=O)C(=O)N[C@@H](Cc1ccccc1)C(=O)N[C@@H](CC(C)C)C(=O)N1CCC[C@H]1C(=O)c1cc(c(C)s1)C1=C(CCC1)c1cc(sc1C)C(=O)N[C@@H](CCCNC(=N)N)C(=O)N2` [Peptide S9n] (RCTKSIPPICFL; disulfide 2-10; linker N-C via X1), for which, at trypsin, the “k H (closed) /k H (open)” value amounted to 8.7 and the “k H [M^−1 s^−1] (closed)” value is reported as 1.3±0.1×10^−3 M^−1 s^−1. This compound returned a Ki in data set [1] (K i [nM] (closed)) of 55 ± 3.8 nM. The compound also showed a Ki in data set [1] (K i [nM] (open)) of 8.3 ± 0.6 nM.
Compound `CC[C@H](C)[C@@H]1NC(=O)[C@@H]2CCCN2C(=O)[C@@H]2CCCN2C(=O)[C@H]([C@@H](C)CC)NC(=O)[C@H](CO)NC(=O)[C@H](CCCCN)NC(=O)[C@H]([C@@H](C)O)NC(=O)c2cc(c(C)s2)C2=C(CCC2)c2cc(sc2C)C(=O)[C@@H]2CCCN2C1=O` [Peptide S4] (TKSIPPI; linker N-C via X1) came in with a Ki in data set [1] (K i [nM] (open)) of 22 ± 3 nM.
Still for that read-out and setting: next, `CC[C@H](C)[C@@H]1NC(=O)[C@@H]2CCCN2C(=O)[C@@H]2CCCN2C(=O)[C@H]([C@@H](C)CC)NC(=O)[C@H](CO)NC(=O)[C@H](CCCCN)NC(=O)[C@H]([C@@H](C)O)NC(=O)[C@H](C)NC(=O)c2cc(c(C)s2)C2=C(CCC2)c2cc(sc2C)C(=O)[C@@H]2CCCN2C(=O)[C@H](C)NC1=O` [Peptide S3] (ATKSIPPIA; linker N-C via X1): 101 ± 9 nM.
Take `CC[C@H](C)[C@@H]1NC(=O)[C@@H]2CCCN2C(=O)[C@@H]2CCCN2C(=O)[C@H]([C@@H](C)CC)NC(=O)[C@H](CO)NC(=O)[C@H](CCCCN)NC(=O)[C@H]([C@@H](C)O)NC(=O)[C@@H]2Cc3cn(nn3)CC[C@H](NC1=O)C(=O)N[C@@H](Cc1ccccc1)C(=O)N1CCC[C@H]1C(=O)c1cc(c(C)s1)C1=C(CCC1)c1cc(sc1C)C(=O)N[C@@H](CCCNC(=N)N)C(=O)N2` [Peptide S6n] (R[Pra]TKSIPPI[Aha]F; triazole 2-10; linker N-C via X1): in data set [2], the “PSS, %” value is recorded as 46.6%. Besides, at trypsin, the “k H (closed) /k H (open)” value was determined as 3.7 and the “k H [M^−1 s^−1] (closed)” value was 2.5±0.8×10^−2 M^−1 s^−1. Besides, the affinity in data set [1] (K i [nM] (open)) corresponds to a Ki of 135 ± 8 nM. Also, the “K i (closed) /K i (open)” value in data set [1] was 8.3.
`CC[C@H](C)[C@@H]1NC(=O)[C@@H]2CCCN2C(=O)[C@@H]2CCCN2C(=O)[C@H]([C@@H](C)CC)NC(=O)[C@H](CO)NC(=O)[C@H](CCCCN)NC(=O)[C@H]([C@@H](C)O)NC(=O)[C@@H]2Cc3cn(nn3)CCC[C@H](NC1=O)C(=O)N[C@@H](Cc1ccccc1)C(=O)N1CCC[C@H]1C(=O)c1cc(c(C)s1)C1=C(CCC1)c1cc(sc1C)C(=O)N[C@@H](CCCNC(=N)N)C(=O)N2` [Peptide S7n] (R[Pra]TKSIPPI[Orn(N3)]F; triazole 2-10; linker N-C via X1): at trypsin, the “k H (closed) /k H (open)” value is reported as 30.5 and the “k H [M^−1 s^−1] (closed)” value is listed as 6.1±1.2×10^−2 M^−1 s^−1. Moreover, the affinity in data set [1] (K i [nM] (closed)), expressed as Ki, was 2200 ± 214 nM. In data set [1] (K i [nM] (open)), this compound had a Ki of 63.4 ± 4.4 nM.
For `CC[C@H](C)[C@@H]1NC(=O)[C@@H]2CCCN2C(=O)[C@@H]2CCCN2C(=O)[C@H]([C@@H](C)CC)NC(=O)[C@H](CO)NC(=O)[C@H](CCCCN)NC(=O)[C@H]([C@@H](C)O)NC(=O)[C@@H]2CSSC[C@H](NC1=O)C(=O)N[C@@H](Cc1ccccc1)C(=O)N1CCC[C@H]1C(=O)c1cc(c(C)s1)C1=C(CCC1)c1cc(sc1C)C(=O)N[C@@H](C(C)C)C(=O)N[C@@H](CCCNC(=N)N)C(=O)N2` [Peptide S8n] (VRCTKSIPPICF; disulfide 3-11; linker N-C via X1) the same measures were 4.1, 5.3±1.4×10^−4 M^−1 s^−1, 125 ± 8 nM and 5.2 ± 0.4 nM.
In data set [1] (K i [nM] (open)), `CC[C@H](C)[C@@H]1NC(=O)[C@@H]2CCCN2C(=O)[C@@H]2CCCN2C(=O)[C@H]([C@@H](C)CC)NC(=O)[C@H](CO)NC(=O)[C@H](CCCCN)NC(=O)[C@H]([C@@H](C)O)NC(=O)[C@@H]2CSSC[C@H](NC1=O)C(=O)N[C@@H](Cc1ccccc1)C(=O)N1CCC[C@H]1C(=O)c1cc(c(C)s1)C1=C(CCC1)c1cc(sc1C)C(=O)N[C@@H](CCCNC(=N)N)C(=O)N2` [Peptide S1n] (RCTKSIPPICF; disulfide 2-10; linker N-C via X1) came in with a Ki of 4.9 ± 0.3 nM.
Take `CC[C@H](C)[C@@H]1NC(=O)[C@@H]2CCCN2C(=O)[C@@H]2CCCN2C(=O)[C@H]([C@@H](C)CC)NC(=O)[C@H](CO)NC(=O)[C@H](CCCCN)NC(=O)[C@H]([C@@H](C)O)NC(=O)[C@@H]2Cc3cn(nn3)CC[C@H](NC1=O)C(=O)N[C@@H](CCCNC(=N)N)C(=O)N1CCC[C@H]1C(=O)c1cc(c(C)s1)C1=C(CCC1)c1cc(sc1C)C(=O)N[C@@H](Cc1ccccc1)C(=O)N2` [Peptide S6i] (F[Pra]TKSIPPI[Aha]R; triazole 2-10; linker N-C via X1): the “PSS, %” value in data set [2] amounted to 39.6%. Besides, on trypsin, the “k H (closed) /k H (open)” value was found to be 5.8 and the “k H [M^−1 s^−1] (closed)” value is recorded as 1.1±0.2×10^−1 M^−1 s^−1. In data set [1] (K i [nM] (open)), this compound registered a Ki of 441 ± 43 nM. Further, in data set [1], the “K i (closed) /K i (open)” value came to 17.5.
As for `CC[C@H](C)[C@@H]1NC(=O)[C@@H]2CCCN2C(=O)[C@@H]2CCCN2C(=O)[C@H]([C@@H](C)CC)NC(=O)[C@H](CO)NC(=O)[C@H](CCCCN)NC(=O)[C@H]([C@@H](C)O)NC(=O)[C@@H]2CSSCC[C@H](NC1=O)C(=O)N[C@@H](CCCNC(=N)N)C(=O)N1CCC[C@H]1C(=O)c1cc(c(C)s1)C1=C(CCC1)c1cc(sc1C)C(=O)N[C@@H](Cc1ccccc1)C(=O)N2` [Peptide S5i] (FCTKSIPPI[hCys]R; disulfide 2-10; linker N-C via X1), the “k H (closed) /k H (open)” value at trypsin is 1.7. Moreover, on trypsin, the “k H [M^−1 s^−1] (closed)” value is 5.0±0.8×10^−3 M^−1 s^−1. Further, the inhibitory constant (Ki) in data set [1] (K i [nM] (closed)) was found to be 182 ± 16 nM; in data set [1] (K i [nM] (open)) it was 102 ± 14 nM.
For `CC[C@H](C)[C@@H]1NC(=O)[C@@H]2CCCN2C(=O)[C@@H]2CCCN2C(=O)[C@H]([C@@H](C)CC)NC(=O)[C@H](CO)NC(=O)[C@H](CCCCN)NC(=O)[C@H]([C@@H](C)O)NC(=O)[C@@H]2Cc3cn(nn3)CCC[C@H](NC1=O)C(=O)N[C@@H](CCCNC(=N)N)C(=O)N1CCC[C@H]1C(=O)c1cc(c(C)s1)C1=C(CCC1)c1cc(sc1C)C(=O)N[C@@H](Cc1ccccc1)C(=O)N2` [Peptide S7i] (F[Pra]TKSIPPI[Orn(N3)]R; triazole 2-10; linker N-C via X1) the same measures were 73, 5.5±1×10^−1 M^−1 s^−1, 7220 ± 360 nM and 263 ± 30 nM.
